From US20240345094A1, “DOUBLE FRAGMENTATION ISOBARIC TAGGING” (Saint Louis University, priority 2023, published 2024) come the findings set out here.

“Also recorded” adds a separate entry of the source.

For the experiment, the system named is Bovine aortic endothelial cells. The experiment in a line: Changes in thiol metabolism upon γ-glutamyl-cysteine synthetase inhibition (6-plex tagged LC-MS of cell lysates). Format: cell-based. The following applies: 250 μM BSO for 16 hours vs reduced-serum media control. The method, then:
Cell culture and lysis: Bovine aortic endothelial cells between passage number 7 and 10 were cultured to confluency in 6 cm plates with Dulbecco's modified eagle medium (DMEM) supplemented with 10% fetal bovine serum (FBS) at 37° C. and 5% CO2. Cell media was swapped with DMEM supplemented with 2% FBS and 250 μM BSO. Control plates were swapped to DMEM with 2% FBS. All plates were lysed after 16 hours as previously described (Filla, L. A., et al., Anal Bioanal Chem 2019, 411 (24), 6399-6407). Briefly, the media was removed and the cells were rapidly rinsed with 1 mL of phosphate-buffered saline. Cells were lysed with the addition of 500 μL of cold 80/20 MeOH/H2O containing 100 mM formic acid and 5 μM of D4 homocysteine as an internal standard. Plates were placed on a dry ice-ethanol bath and the cell contents were collected, then centrifuged at 21,100×g for three minutes. The supernatant was immediately collected and stored on dry ice until derivatization.
Thiol Derivatization: Thiol metabolite stocks were created as individual 500 μM vials with 50/50 H2O/MeOH containing 20 mM formic acid and stored at −20° C. to minimize degradation. Lower concentration stocks were produced by further dilution and derivatized immediately. For cell lysate reactions, 100 μL of the lysate was used for each reaction. Thiol metabolites were added to 100 μL of 100 mM ammonium bicarbonate pH 8. An isotopic iodide tag was then immediately added (100 μL, 100 μM) and left at room temperature to react for 16 hours to ensure a complete reaction. All iodide tags and reactions were handled in the dark to prevent degradation. After the reaction was completed, the samples were mixed with the other isotope variants, dried in a vacuum centrifuge, and reconstituted to 100 μL in the starting mobile phase conditions.
Liquid Chromatography: Fused silica capillary (Polymicro Technologies, Phoenix, AZ) was used to fabricate columns with an inner diameter of 50 μm as previously described (Edwards, J. L., et al, Journal of Chromatography A 2007, 1172 (2), 127-134). Briefly, 50 μm inner diameter capillary was cut to 25 cm, a photopolymerized frit placed 30 mm from the end, then a tip pulled with a Sutter P2000 micropipette puller and etched in 50% HF. The capillary bed was packed to 20 cm with Atlantis silica HILIC 3 μm particles (Waters Corp, Milford, MA). After equilibration the capillary was cut to 17.5 cm for analysis. Flow was delivered by a Thermo Vanquish LC (Thermo Fisher Scientific, Waltham, MA) connected to a stainless steel tee to split the flow. A 50 μm×100 cm open capillary was used as the split to direct 115 nL of the total flow and 4 nL injections to the capillary column (split ratio 1:1500 for bulk flow of 175 μL/min and injection of 6 μL). The split ratio was determined by calculating flow through the capillary based on the experimental dead time and column dimensions. Mobile phase A was pure acetonitrile and mobile phase B was 25 mM ammonium acetate in 80/20 (water/ACN) with 0.05% acetic acid as an additive. The gradient is supplied in Table 1 below.
MS Analysis: A Q-Exactive mass spectrometer (Thermo Fisher Scientific, Waltham, MA) was used for all analyses. An MS^1 survey scan operated at a resolution of 17.5K with an ion injection time of 50 ms and AGC of 1e^6 for m/z 250-650. […] These MS^2 scans operated at a resolution of 140K with an ion injection time of 200 ms, AGC of 1e^5, and the optimized collision energy determined for each analyte. […]

Regarding `CCCCS(=N)(=O)CCC(N)C(=O)O` (centres unmarked) [BSO, Buthionine sulfoximine], where the note is “n=3, FIG. 5B”, the GSH level change result is on record as “Significant decreases; also recorded: glutathione depletion was observed” and the cysteinyl-glycine level change entry was “Significant decreases”. For the same molecule, where the note is “n=3, near the limit of detection”, the Glutamyl-cysteine level change result was “did not change significantly”. Further, for the setting “n=3, trended upward”, the cysteine level change entry is “did not change” and the homocysteine level change result is recorded as “did not change”.
